Here are results for 13 compounds from ChEMBL document CHEMBL1138999, “Synthesis and in vitro evaluation of novel derivatives of diphenylsulfide as serotonin transporter ligands” (Bioorg Med Chem Lett, 2006).

The term Ki denotes a dissociation constant, usually derived from enzyme kinetics or from competition with a known ligand. Low readings indicate a stronger hold on the target, high ones a looser hold on the target. In general, IC50 refers to the point on the concentration scale where inhibition reaches its midpoint. A low value points to greater potency.

Test [1] concerns the target T1, Sodium-dependent serotonin transporter (Homo sapiens, UniProt P31645). Description: Displacement of [3H]paroxetine from SERT. In general terms: Loss of bound radioactivity is the signal in a displacement assay; it reports binding, not function.
Test [2] has as its target Sodium-dependent dopamine transporter (Homo sapiens, UniProt Q01959). Description: Inhibitory activity against DAT.
Test [3] has as its target Sodium-dependent noradrenaline transporter (Homo sapiens, UniProt P23975). The experiment in a line: Inhibitory activity against NET.
Test [4] has as its target T1, Sodium-dependent serotonin transporter. The experiment in a line: Inhibitory activity against SERT.

Sequence of Sodium-dependent noradrenaline transporter (P23975 whole entry): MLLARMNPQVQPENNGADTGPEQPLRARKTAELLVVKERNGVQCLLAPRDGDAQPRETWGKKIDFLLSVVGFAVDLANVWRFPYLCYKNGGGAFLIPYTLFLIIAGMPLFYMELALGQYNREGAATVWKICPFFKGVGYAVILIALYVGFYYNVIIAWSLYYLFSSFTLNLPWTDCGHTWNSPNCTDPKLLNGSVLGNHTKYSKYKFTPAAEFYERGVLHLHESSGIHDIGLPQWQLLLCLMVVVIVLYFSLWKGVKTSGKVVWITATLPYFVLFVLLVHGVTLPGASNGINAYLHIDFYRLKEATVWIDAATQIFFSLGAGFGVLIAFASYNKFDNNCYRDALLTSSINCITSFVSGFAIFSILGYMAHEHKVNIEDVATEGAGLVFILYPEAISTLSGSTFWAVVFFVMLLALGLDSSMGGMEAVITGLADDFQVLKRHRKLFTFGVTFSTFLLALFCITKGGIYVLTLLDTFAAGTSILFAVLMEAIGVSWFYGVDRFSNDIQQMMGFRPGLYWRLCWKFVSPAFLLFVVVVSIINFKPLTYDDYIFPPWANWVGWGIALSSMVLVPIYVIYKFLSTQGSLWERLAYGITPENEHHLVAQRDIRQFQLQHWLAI
T1 sequence (P31645 whole entry): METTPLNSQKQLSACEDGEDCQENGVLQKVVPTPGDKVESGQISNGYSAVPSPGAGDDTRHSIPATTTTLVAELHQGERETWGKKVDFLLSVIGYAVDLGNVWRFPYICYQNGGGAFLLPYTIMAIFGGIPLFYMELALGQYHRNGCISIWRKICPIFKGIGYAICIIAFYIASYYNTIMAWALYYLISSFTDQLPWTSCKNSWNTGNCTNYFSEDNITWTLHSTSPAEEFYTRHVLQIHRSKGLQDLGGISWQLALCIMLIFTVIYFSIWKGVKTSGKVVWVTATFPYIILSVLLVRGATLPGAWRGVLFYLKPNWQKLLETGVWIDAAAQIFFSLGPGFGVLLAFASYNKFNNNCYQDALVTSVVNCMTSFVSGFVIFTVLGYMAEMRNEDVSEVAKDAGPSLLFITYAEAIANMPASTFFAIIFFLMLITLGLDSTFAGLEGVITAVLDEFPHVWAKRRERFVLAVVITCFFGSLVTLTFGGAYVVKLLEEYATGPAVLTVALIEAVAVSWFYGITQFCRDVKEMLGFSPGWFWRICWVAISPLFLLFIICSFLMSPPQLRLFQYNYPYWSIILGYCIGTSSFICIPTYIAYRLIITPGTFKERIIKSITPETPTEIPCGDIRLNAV
Sequence of Sodium-dependent dopamine transporter (Q01959 whole entry): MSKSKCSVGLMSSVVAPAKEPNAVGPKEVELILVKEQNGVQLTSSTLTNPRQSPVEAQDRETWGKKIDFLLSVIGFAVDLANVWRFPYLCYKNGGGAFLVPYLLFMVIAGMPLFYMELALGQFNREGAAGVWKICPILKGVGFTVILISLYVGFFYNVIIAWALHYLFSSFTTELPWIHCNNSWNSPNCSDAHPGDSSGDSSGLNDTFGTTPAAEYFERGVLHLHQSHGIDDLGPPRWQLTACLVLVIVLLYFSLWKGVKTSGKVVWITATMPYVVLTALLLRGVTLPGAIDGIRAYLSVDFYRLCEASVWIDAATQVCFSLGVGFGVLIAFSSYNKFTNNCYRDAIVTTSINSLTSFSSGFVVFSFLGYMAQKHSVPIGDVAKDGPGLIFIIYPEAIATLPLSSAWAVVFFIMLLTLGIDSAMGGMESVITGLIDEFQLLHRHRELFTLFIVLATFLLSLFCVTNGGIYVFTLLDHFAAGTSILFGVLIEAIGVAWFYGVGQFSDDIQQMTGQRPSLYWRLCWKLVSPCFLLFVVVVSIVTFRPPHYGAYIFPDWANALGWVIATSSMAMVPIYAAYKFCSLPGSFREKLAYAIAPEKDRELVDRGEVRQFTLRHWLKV

The compound `Cc1ccc(Sc2ccccc2CN(C)C)c(N)c1` yielded an inhibitory constant (Ki) in test [1] of 0.00165 µM. In addition, the half-maximal inhibitory concentration (IC50) in test [2] and in test [3] was above 0.1 µM in each case.

As for `Cc1ccc(S(=O)(=O)c2ccccc2CN(C)C)c(N)c1`, the IC50 in test [4], in test [2] and in test [3] was above 0.1 µM in each case.

For the compound `Cc1ccc(Oc2ccccc2CN(C)C)c(N)c1`, the affinity in test [1] corresponds to a Ki of 0.00053 µM. The IC50 in test [2] and in test [3] was above 0.1 µM throughout.

Regarding `Cc1ccc(C(O)c2ccccc2CN(C)C)c(N)c1` (centres undefined), the IC50 in test [4], in test [2] and in test [3] was above 0.1 µM each time.

In test [1], `Cc1ccc(Nc2ccccc2CN(C)C)c(N)c1` came in with a Ki of 0.0103 µM. Moreover, the IC50 in test [2] and in test [3] was above 0.1 µM each time.

Take `Cc1ccc(N(c2ccccc2)c2ccccc2CN(C)C)c(N)c1`: the IC50 in test [4], in test [2] and in test [3] was above 0.1 µM in each case.

For `CCN(c1ccc(C)cc1N)c1ccccc1CN(C)C`, the IC50 in test [4], in test [2] and in test [3] was above 0.1 µM throughout.

For the compound `Cc1ccc(N(C)c2ccccc2CN(C)C)c(N)c1`, the IC50 in test [4], in test [2] and in test [3] was above 0.1 µM each time.

On to `Cc1ccc(C(=O)c2ccccc2CN(C)C)c(N)c1`, for which the IC50 in test [4], in test [2] and in test [3] was above 0.1 µM throughout.

On to `Cc1ccc(N)c(-c2ccccc2CN(C)C)c1`, for which the IC50 in test [4], in test [2] and in test [3] was above 0.1 µM each time.

As to `Cc1ccc([S+]([O-])c2ccccc2CN(C)C)c(N)c1` (centres undefined), affinity in test [1] was put at a Ki of 0.00415 µM. For the same compound, the IC50 in test [2] and in test [3] was above 0.1 µM throughout.

On to `COC(c1ccc(C)cc1N)c1ccccc1CN(C)C` (centres undefined), for which the 50% inhibitory concentration (IC50) in test [4], in test [2] and in test [3] was above 0.1 µM in each case.

In the case of `Cc1ccc(N(Cc2ccccc2)c2ccccc2CN(C)C)c(N)c1`, the IC50 in test [4], in test [2] and in test [3] was above 0.1 µM throughout.
